19 molecules from ChEMBL document CHEMBL1201862, “PubChem BioAssay data set” (2004) can be followed below.

In assay [1] the target is FAD-linked sulfhydryl oxidase ALR (Homo sapiens, UniProt P55789). Kind of assay: ALR-catalysed DTT oxidation blockers – biochemical, H2O2 detection, luminescence, cherry-pick, dose response (AID 493248).
Assay [2] addresses T1, Short transient receptor potential channel 4 (Mus musculus, UniProt Q9QUQ5).
T1 sequence (Q9QUQ5 whole entry): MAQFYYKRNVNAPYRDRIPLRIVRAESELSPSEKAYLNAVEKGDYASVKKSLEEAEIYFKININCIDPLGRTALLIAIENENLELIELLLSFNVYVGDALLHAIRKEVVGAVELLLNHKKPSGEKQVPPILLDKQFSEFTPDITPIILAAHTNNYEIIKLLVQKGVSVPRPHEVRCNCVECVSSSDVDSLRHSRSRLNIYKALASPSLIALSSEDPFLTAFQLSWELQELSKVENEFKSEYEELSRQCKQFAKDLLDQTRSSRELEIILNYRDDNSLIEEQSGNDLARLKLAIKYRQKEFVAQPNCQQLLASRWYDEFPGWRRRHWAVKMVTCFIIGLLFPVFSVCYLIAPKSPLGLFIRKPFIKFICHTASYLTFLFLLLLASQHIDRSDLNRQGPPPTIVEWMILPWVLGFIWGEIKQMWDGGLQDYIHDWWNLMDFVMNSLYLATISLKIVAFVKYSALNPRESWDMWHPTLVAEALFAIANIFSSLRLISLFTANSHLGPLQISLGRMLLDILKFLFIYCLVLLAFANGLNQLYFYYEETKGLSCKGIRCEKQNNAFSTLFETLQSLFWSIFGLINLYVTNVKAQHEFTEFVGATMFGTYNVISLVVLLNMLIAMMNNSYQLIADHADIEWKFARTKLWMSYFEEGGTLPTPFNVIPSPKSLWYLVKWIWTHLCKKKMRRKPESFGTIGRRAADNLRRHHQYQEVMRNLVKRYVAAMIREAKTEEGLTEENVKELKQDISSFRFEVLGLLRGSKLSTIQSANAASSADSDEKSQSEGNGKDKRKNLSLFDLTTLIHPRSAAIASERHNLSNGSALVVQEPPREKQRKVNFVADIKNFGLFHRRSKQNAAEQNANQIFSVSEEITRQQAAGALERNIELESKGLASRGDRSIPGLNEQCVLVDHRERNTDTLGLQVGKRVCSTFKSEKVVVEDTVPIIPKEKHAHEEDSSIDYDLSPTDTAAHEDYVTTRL
Briefly: block of DAMGO-driven TRPC4 calcium entry – cell-based, HEK293 TRPC4/mu-opioid, Fluo-4 calcium, dose response (AID 434942).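 Note: potency of inhibitors blocking the TRPC4 calcium response.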 The format is functional.

In assay [3] the test system is Streptococcus. Kind of assay: GAS UMAA2166 growth inhibition – luminescence, BacTiterGlo, counter-screen for streptokinase expression inhibitor project, dose response (AID 1915).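 Note: potency for reduction of bacterial viability or growth.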 The class given is functional, organism-based. For orientation: The purpose of a counterscreen is to sort out artefacts and off-target activity.
Assay [4] can be described thus: NIH3T3 cell viability loss – ATP luminescence, mouse fibroblasts, counter-screen, dose response (AID 2010).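 Note: cells exposed to compound for about 90 hours before reading.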 The class given is functional, cell-based.
The test system of assay [5] is BJ. Briefly: BJ-TERT-LT-ST fibroblast viability loss – cell-based, RAS-independent, luminescence, dose response (AID 1935).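 Note: BJ fibroblasts immortalized with TERT plus LT and ST oncogenes.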 The class given is functional. The note with it: Homo sapiens.
Assay [6] is described as follows: DRD fibroblast viability loss – cell-based, non-viral oncogenic, luminescence, dose response (AID 1934). The class given is functional. Conditions: Homo sapiens.
Assay [7] deals with T2, Streptokinase A (Streptococcus pyogenes serotype M1, UniProt P10520).
T2 sequence (P10520 whole entry): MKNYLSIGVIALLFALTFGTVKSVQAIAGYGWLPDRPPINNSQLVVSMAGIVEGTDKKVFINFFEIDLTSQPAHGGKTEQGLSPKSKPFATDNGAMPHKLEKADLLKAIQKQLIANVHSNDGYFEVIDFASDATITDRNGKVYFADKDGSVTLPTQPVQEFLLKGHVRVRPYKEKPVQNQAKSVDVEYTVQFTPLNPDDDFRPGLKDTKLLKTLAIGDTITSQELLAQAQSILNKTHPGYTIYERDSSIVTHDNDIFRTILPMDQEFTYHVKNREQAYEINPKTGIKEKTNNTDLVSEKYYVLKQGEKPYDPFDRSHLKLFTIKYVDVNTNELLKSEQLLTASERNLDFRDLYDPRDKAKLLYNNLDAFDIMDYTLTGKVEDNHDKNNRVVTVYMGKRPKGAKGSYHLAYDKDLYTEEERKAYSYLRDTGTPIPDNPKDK
Kind of assay: viability-normalized secreted streptokinase activity reduction – plasminogen activation absorbance, OD405, dose response (AID 1914).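 Note: secreted streptokinase activity via plasminogen activation per viability signal from cell pellet.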 The class given is functional, Streptococcus pyogenes M1 GAS.

The nature of assay [8]: Trypanosoma cruzi growth suppression in host cells – NIH3T3 host cells, beta-gal luminescence, confirmation (AID 2044).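 Note: intracellular parasites grown in NIH/3T3 mouse fibroblasts as host cells; luminescent beta-galactosidase reporter signal from transgenic T. cruzi replicating inside host cells; inhibitors lower the luminescence signal.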 The format is functional, cell-based.
The test system of assay [9] is BJ. Kind of assay: cells. The format is functional, cell-based. The note with it: Homo sapiens.
The test system of assay [10] is BJ. Kind of assay: BJ-TERT fibroblast viability loss – cell-based, RAS-independent, luminescence, dose response (AID 1933). The format is functional. Conditions: Homo sapiens.
Assay [11] concerns Streptococcus sp. 'group A'. Briefly: Streptococcus pyogenes SK(-)GAS viability under kanamycin – luminescence, BacTiterGlo, confirmation, counter-screen for streptokinase expression inhibitor project, dose response (AID 1900). The class given is functional, organism-based.
Assay [12] can be described thus: HEK-293T viability loss after treatment – luminescence, T-cell screen hits, cytotoxicity control for TCR NF-kB inhibitor project, dose response (AID 489026).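 Note: cells exposed to compound about 14 hours before the viability readout.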 The class given is functional, cell-based.
For assay [13], the system named is INS1. Kind of assay: INS-1E survival protection against cytokine death – cell-based, luminescence, retest, dose response (AID 449756).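 Note: cell death triggered by IL-1 beta plus TNF-alpha plus IFN-gamma mixture; protective hits raise ATP signal compared with cytokine alone wells.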 The format is functional. The note with it: Rattus norvegicus.
Assay [14] deals with T3, Rac GTPase-activating protein 1 (Homo sapiens, UniProt Q9H0H5).
T3 sequence (Q9H0H5 whole entry): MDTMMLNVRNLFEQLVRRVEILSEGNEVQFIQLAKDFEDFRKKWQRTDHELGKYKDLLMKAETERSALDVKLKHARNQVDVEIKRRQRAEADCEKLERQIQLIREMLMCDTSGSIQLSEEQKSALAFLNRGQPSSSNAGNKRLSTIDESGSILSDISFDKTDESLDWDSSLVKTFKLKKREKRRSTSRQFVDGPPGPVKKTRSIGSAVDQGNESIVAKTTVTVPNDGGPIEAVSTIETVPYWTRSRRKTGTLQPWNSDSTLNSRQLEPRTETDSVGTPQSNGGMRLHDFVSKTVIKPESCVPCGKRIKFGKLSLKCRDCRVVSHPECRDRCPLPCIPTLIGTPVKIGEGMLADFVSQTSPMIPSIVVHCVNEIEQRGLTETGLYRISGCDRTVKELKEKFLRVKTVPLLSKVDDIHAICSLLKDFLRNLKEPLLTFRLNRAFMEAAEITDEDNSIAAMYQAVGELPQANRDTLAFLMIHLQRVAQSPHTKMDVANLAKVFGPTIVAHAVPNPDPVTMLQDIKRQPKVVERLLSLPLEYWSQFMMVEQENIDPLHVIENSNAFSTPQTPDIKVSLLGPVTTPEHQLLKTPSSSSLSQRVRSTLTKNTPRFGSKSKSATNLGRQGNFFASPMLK
Briefly: blockers of MgcRacGAP-driven Rac1 GTP hydrolysis – biochemical, ADP Hunter fluorescence, primary and confirmatory, confirmation (AID 624330). The class given is functional.

A short description of assay [15]: Luminescence Cell-Based Dose Retest to Confirm Inhibitors of Cancer Stem Cells. [Related pubchem assays (depositor defined):AID2717, AID2721]. The class given is functional, Homo sapiens. Conditions: Homo sapiens.
Assay [16] concerns HEK293. Kind of assay: inhibition of NOD1-driven NF-kB reporter – cell-based, luminescence, uHTS, primary screen (AID 1578). The class given is functional. The note with it: Homo sapiens.
The test system of assay [17] is HEK293. Kind of assay: NOD2 signaling inhibitors in MDP-stimulated cells, cell-based, uHTS, luminescence (AID 2001). The format is functional. The note with it: Homo sapiens.
The test system of assay [18] is HEK293. Briefly: cells. The format is functional, cell-based. The note with it: Homo sapiens.
For assay [19], the system named is HEK293. Kind of assay: cells. The class given is functional, cell-based. The note with it: Homo sapiens. This is another data set of the same source.
Assay [20] can be described thus: viability of uninfected HEp-2 cells – cell-based, HTS, cytotoxicity control for RSV inhibitor project, dose response (AID 2410). The class given is functional. The note with it: human respiratory syncytial virus.

Active and inactive are the calls of the source. Bounds are passed on as bounds.

In general, AC50 refers to the concentration giving half of the maximal activity seen. As usually defined, the EC50 is the concentration needed to bring the measured effect to its halfway point. A word on the IC50: it is the concentration that gives 50% inhibition. By CC50 is commonly meant the concentration that lowers cell viability or growth by half.

Sequence of FAD-linked sulfhydryl oxidase ALR (P55789 whole entry): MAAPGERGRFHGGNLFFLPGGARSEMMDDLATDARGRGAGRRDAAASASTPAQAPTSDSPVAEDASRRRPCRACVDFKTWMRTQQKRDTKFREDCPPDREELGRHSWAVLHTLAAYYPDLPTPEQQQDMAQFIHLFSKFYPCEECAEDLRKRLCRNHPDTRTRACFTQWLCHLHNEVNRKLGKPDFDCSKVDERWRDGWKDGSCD

For the molecule `c1ccc2[nH]c(SCc3cn4cccnc4n3)nc2c1`, the AC50 in assay [1] is 0.194 µM (active).

For the molecule `NC(=O)c1nsc(C(=O)N(Cc2ccco2)C(C(=O)NCC2CCCO2)c2ccc(F)cc2)c1N` (stereo unspecified), the EC50 in assay [2] was 10.6 µM (active).

Regarding `Cn1cccc1/C=N/n1c(S)nnc1-c1ccc(Cl)cc1Cl`, in assay [1], the AC50 was 1.07 µM (active).

For the molecule `CSCC[C@H](NC(=O)N1CCn2c1nc1ccccc12)C(=O)N1CCCCC1`, the AC50 in [1] was 4.31 µM (active).

Regarding `CCCCOc1ccc(CSCCN=C(N)N)cc1`, the EC50 in [2] is 3.35 µM (active).

For the molecule `COC(=O)c1c(NC(=O)COc2ccc(Cl)cc2)sc2c1CC(C)(C)NC2(C)C`, the EC50 was > 150 µM (not active) in assay [3]; 10.4 µM (active) in assay [4]; 5.75 µM (inconclusive) in [5]; 5.85 µM (active) in assay [6]; 23.7 µM (active) in assay [7]; 1.54 µM (active) in assay [8]. The values for the concentration for a half-maximal effect (EC50) in assay [9], in assay [10] and in assay [11] were 11.7 µM (active), 4.44 µM (active) and 11.6 µM (active), respectively.

As to `O=C(C1CCCC1)N1CCN=C1SCc1cccc([N+](=O)[O-])c1`, the AC50 in assay [1] is 0.032 µM (active).

Regarding `C=C1C(O)[C@@H]2O[C@]3(CC[C@H](/C=C/C(C)[C@@H]4CC(C)=CC5(O[C@H](C[C@@](C)(O)CO)CCC5O)O4)O3)CC[C@H]2O[C@@H]1C(O)CC(C)[C@H]1OC2(CCCCO2)CCC1C` (stereo partly specified), the IC50 in assay [12] was > 80 µM (inactive). The AC50 in assay [13] was 5.98 µM (active).

Take `C/C(=N\NC(=O)CN1CCN(S(=O)(=O)c2ccc(C)cc2)CC1)c1ccc(O)cc1`: the AC50 in assay [1] is 2.92 µM (active).

Consider `Nc1ccc(N2CCN(c3ccccc3)CC2)c(F)c1`, for which the AC50 in assay [1] is 13.2 µM (active). In addition, the IC50 in assay [14] was 46.6 µM (active).

Regarding `Cc1nn(C(=O)c2cccc([N+](=O)[O-])c2)c(C)c1Sc1ccccc1`, the EC50 in assay [2] is 2.66 µM (active).

As for `COc1cc(-c2noc(C)c2/C=C/c2ccc(OC(C)=O)cc2)cc(OC)c1OC`, in assay [12], the IC50 was 52.8 µM (inactive). In addition, the AC50 in [15] is 0.222 µM (active).

Consider `CC(C)CCN1CCN(Cc2ccsc2)CC1CCO` (stereo unspecified), for which the EC50 in [2] is 4.22 µM (active).

For the molecule `CCC1(C(=O)c2ccccc2)C(c2ccc([N+](=O)[O-])cc2)C1(C(=O)OC)C(=O)OC` (stereo unspecified), the EC50 in assay [2] was 4.22 µM (active).

Regarding `Cc1cc(C(=O)NNc2ccccc2F)no1`, the 50% effective concentration (EC50) in assay [4] was 5.14 µM (active); in assay [8], 2.26 µM (active). The AC50 in assay [1] was 5.7 µM (active).

Consider `CC1CN(C2CCCCC2)c2nc3c(c(=O)[nH]c(=O)n3C)n2C1` (stereo unspecified), for which the AC50 in assay [1] is 1.81 µM (active).

On to `O=C(c1[nH]nc2c1CCc1ccccc1-2)N1CCN(Cc2ccc3c(c2)OCO3)CC1`, for which the EC50 in [16] was 5.4 µM (active). Also, the IC50 in assay [17] is 5.11 µM (active); in assay [18] it was 8.27 µM (active); in assay [19], 4.07 µM (active).

For the molecule `CCN(CC)c1ccc([N+](=O)[O-])c2cccnc12`, in assay [2], the EC50 was 10.6 µM (active). Further, in assay [20], the CC50 is 36.7 µM (active).

For the molecule `Cc1c(C(=O)OC2CCCC2)[nH]c2c1C(=O)CC(c1ccco1)C2` (stereo unspecified), the IC50 in assay [12] is > 80 µM (inactive).
